Experiments:
primary cortical neurons = assay: 3-NP induced toxicity in primary cortical culture (Hoechst staining, MAP-2 immunocytochemistry); assay type: cell-based, rat
Experimental: Primary cortical cultures were prepared from embryonic day 18 (E18) fetal Sprague Dawley (SD) rat brains. The cells were maintained in Neurobasal medium supplemented with B27 (GIBCO/Life Technologies of Thermo Fisher Scientific Corporation) at 37° C. for 7 days to allow growth of dendrites before experimentation.
3-NP (Cat. No. 73803, Sigma, St. Louis, Mo., USA) was dissolved in phosphate-buffered saline (PBS) as a stock solution of 1 M and adjusted to pH 7.4 with 10 M sodium hydroxide. The 3-NP stock solution was then dispensed into 1-ml aliquots, protected from light, and stored at −20° C. until use.
Hoechst staining is used to assess the extent of the cell survival. Cells were fixed in 4% paraformaldehyde (PFA) in phosphate-buffered saline (PBS), incubated with the Hoechst 33342 diluted in PBS (1:1000) for 5-15 minutes. The Hoechst staining is used to assess the extent of the cell survival after the exposure to 2.5 mM 3-NP for 24 hours.
Cells were fixed in 4% PFA and washed in PBS, blocked with 2% bovine serum albumin (BSA) and treated by 0.03% Triton X-100 in PBS, before being incubated with mouse monoclonal antibody against microtubule-associated protein-2 (MAP-2) in 1:150 dilution (Cat. No. MAB378, CHEMICON International, Inc., Temecula, Calif., USA). The goat anti-mouse IgG Alexa fluor-conjugated secondary antibodies (Cat No. A11003, Thermo Scientific) in 1:500 dilution were applied to recognize the primary antibodies of the MAP-2. For confocal microscopy, the coverslips were observed under a laser-scanning confocal microscope (Zeiss LSM700; Oberkochen, Germany) equipped with filter sets to detect the corresponding fluorescent signals.
The cells were then exposed to 2.5 mM 3-NP for 24 hours.
Quantitative analysis was also performed to assess the extents of cell death. At least three vision fields were randomly selected and the averaged numbers of dead cells and all nuclei per vision field on each coverslip were calculated.

[1] = Plasma pharmacokinetics of benzoic acid after oral gavage; assay type: in vivo, Sprague-Dawley rats; conditions: rat, single oral gavage
Experimental: The plasma concentration of benzoic acid was determined by LC/MS/MS. The chromatographic separation was carried out on a ODS 5 um column (4.6×150 mm, Biosil). The mobile phase consisted of a mixture of 1% mobile phase A and 99% mobile phase B. […] The injection volume was 50 μL and the column temperature was 23° C. All solvents were HPLC grade quality. Plots of plasma concentration of benzoic acid versus time are constructed. The fundamental pharmacokinetic parameters were obtained from non-compartmental analysis (NCA) of the plasma data using WinNonlin.

[2] = Plasma pharmacokinetics of lithium after oral gavage (ICP-MS)
Experimental: Male Sprague-Dawley rats weighed between 240-260 g were randomly assigned to two groups. […] These two regimens would provide the same molarity of lithium and benzoate. The chemicals were dissolved in PBS, and then administrated by oral gavage. All rats were fasted overnight with free access to water before experiments. After single dose administration of drugs, the blood samples were then collected at the time point 0, 5, 15, 30, 60, 90, 120, 240, 360, 720, and 1440 min.
Blood samples were collected in tubes coated with sodium heparin from jugular vein catheterized rats. Then, the blood samples were kept on ice and centrifuged at 2,500×g for 15 min at 4° C. The supernatant was collected and then kept frozen at −80° C. until further processing.

[3] = test system: B6SJL-Tg(SOD1*G93A)1Gur/J mice; assay: SOD1*G93A transgenic ALS mice: behavioral tasks, body weight, survival; assay type: in vivo, mouse
Text: Disease onset of B6SJL-Tg(SOD1*G93A)1Gur/J mice occurred at around 80-90 days of age, while progressive clinical weakness followed by paralysis and death occurred by 135-140 days.
In cohort 2, the male transgenic and wild-type littermates were randomly divided into 3 groups as cohort 1: vehicle (n=5), vehicle-ALS (n=6), and drug-ALS (n=11). Disease onset occurred at around 110-120 days of age, while progressive clinical weakness followed by paralysis and death occurred at around 150-155 days.
In cohort 1, drug regimen was initiated 8 weeks after birth and continued until the end of study. […] The vehicle groups received injections of the same volume of saline.
The drug regimen for cohort 2 was the same as that for cohort 1 except the dosing was started at 10 weeks of age.
Open field is an animal behavioral task that can monitor the overall spontaneous locomotor activity. Each animal was placed in an empty test arena (60 cm×60 cm plastic boxes) for 1 hour, and its activity was assessed by VersaMax Animal Activity Monitoring System (AccuScan Instruments, Inc. Columbus Ohio, USA). Total traveling distance, number of rearing movements and rearing time were analyzed. Performance of open field was measured 1-2 times per week.
In the open field task, each animal was placed in an empty test arena (43.2 cm×21.6 cm plastic boxes) for 1 hour, and its activity was assessed by Photobeam Activity System (San Diego Instruments, USA). Total traveling and rearing activities (beam break times) were analyzed. Performance of open field was measured once per week.
Rorarod task, which requires animals to balance and walk on a rotating cylinder, is a widely used test to measure coordinated motor skills. The mice were placed on a 5-channel automatic revolving rod apparatus (PanLab/Harvard Apparatus). […] After the training sessions, motor coordination was evaluated at 16 rpm for a maximum of 5 min. […] Performance of rotarod task was measured once per week, and the longest retention time for each animal was recorded.
A metal wire mesh (0.2 cm diameter, 1 cm×1 cm wide grid) was fixed horizontally 30 cm above the table. […] The latency to fall was recorded when the animal fell, and a maximum time of 180 s was assigned for analysis. There were two sessions for each individual with a 30-min interval, and the longer time was recorded. Performance of hanging test was measured once per week.
For each animal, body weight was measured weekly starting at 10 weeks of age. […]
Date and cause of death were recorded for each mouse. Animals were closely monitored and euthanized if moribund, which was defined as the inability of mice to right themselves 30 seconds after being placed on a side, in accordance with the criteria for severe morbidity. The moribund mice were recorded as “dead”, and euthanized using carbon dioxide.

[4] = NaBen 287.9 mg/kg + Li2CO3 74.2 mg/kg or LiBen 255.3 mg/kg
[5] = 256 mg/kg/day i.p., vs ALS mice treated with vehicle

O=C([O-])c1ccccc1.[Li+] [lithium benzoate]
cell survival, drug only (primary cortical neurons; cortical culture treated only with lithium benzoate, not 3-NP): No difference
cell survival (protection from 3-NP induced neuron death) (primary cortical neurons; lithium benzoate 1 mM or 3 mM pre-treatment 24 h, then 2.5 mM 3-NP 24 h): significantly protected
MAP-2 immunocytochemistry, confocal microscopy (primary cortical neurons; lithium benzoate 1 or 3 mM, 3-NP exposure): neuronal protection
AUC Extr of benzoic acid [1, 4]: 2.63%
AUCInf of benzoic acid [1, 4]: 62,874 hr * ng/mL
AUClast of benzoic acid [1, 4]: 62,059 hr * ng/mL
Cmax of benzoic acid [1, 4]: 109,321 ng/mL
MRT of benzoic acid [1, 4]: 45 min
Tmax of benzoic acid ([1]; NaBen 287.9 mg/kg + Li2CO3 74.2 mg/kg or LiBen 255.3 mg/kg (same molarity)): 11.4 min
Tmax of lithium ([2]; rat, single oral gavage, NaBen 287.9 mg/kg + Li2CO3 74.2 mg/kg or LiBen 255.3 mg/kg): 132.5 min
Cmax ([2]; read-out: Cmax of lithium, rat, single oral gavage, NaBen 287.9 mg/kg + Li2CO3 74.2 mg/kg or LiBen 255.3 mg/kg): 1720 µM
proportion of mice surviving over time [3, 5]: improved
weight change [3, 5]: improved
hind limb functions (number of rearing movements, rearing time; open field) ([3]; cohort 1, female, 256 mg/kg/day i.p. from 8 weeks, about 90 to about 130 days of age, vs saline ALS mice): significantly improved
motor functions (hanging test, rotarod test, rearing activity, traveling activity) ([3]; cohort 2, male, 256 mg/kg/day i.p. from 10 weeks, about 133 to about 147 days of age, vs saline ALS mice): improved

From US10668032B2 (SyneuRx International (Taiwan) Corp., priority 2016, dated 2020)
